Reference: paper PMC6778150 (Scientific Reports, 2019)
Non-standard residues stand in square brackets, D forms with d. Residues, ends and D or L forms follow the SMILES beside them. *: point of attachment. Dnp = O=[N+]([O-])c1ccc(*)c([N+](=O)[O-])c1; 2Abz = Nc1ccccc1C(=O)O

Experiments:
[1] = format: physicochemical; conditions: kinetic, from DMSO stock (6 µl + 500 µl), 50 mM Tris-HCl pH 7.4, room temperature, 24 h, spectrophotometric at 365 nm
Protocol: The substrate sorption on labware complicated the measurement of the Abz-RSVIK(Dnp) solubility since the standard approach based on serial dilutions and identification of the linear range of the experimental concentration-dilution factor relationship could not be used. The substrate solubility was evaluated by periodic spectrophotometric quantitation of its dilutions immediately prepared from the stock in DMSO for one day. Up to 130 µM, the substrate solutions remained stable for 24 h (Supplementary Fig. S3); however, starting from 150 µM their optical density decreased with time. Thus, the substrate has reasonable water solubility and can be used in concentrations up to 130 µM.
The stock solutions (6 µl) in DMSO were supplemented with 500 µl of 50 mM Tris-HCl (pH 7.4). The solutions were incubated at room temperature and the concentration changes were controlled spectrophotometrically for 24 h (Supplementary Fig. S3).
Figure S3. Solubility of Abz-RSVIK(Dnp). Different substrate concentrations were prepared in microcentrifuge tubes (SSI). The stock solution was diluted with DMSO 1.3-20 times. The resulting solutions (6 µl) were supplemented with 500 µl of 50 mM Tris-HCl (pH 7.4). […] A. Measured substrate concentrations for all dilutions and time periods. B. Relationship between substrate concentration and stock quantity 5 h after dilution. […]

thermolysin = thermolysin (UniProt P00800)
[2] = biological target: His6-tagged protealysin (Serratia proteamaculans)
thermolysin (TLN) = assay: 7.5 nM TLN in 10 mM NH4HCO3; conditions: 37 °C, up to 40 min
protealysin (PLN) = assay: 2.5 nM PLN in 10 mM NH4HCO3; conditions: Serratia proteamaculans, 37 °C, up to 40 min
[3] = substrate: CC[C@H](C)[C@H](NC(=O)[C@@H](NC(=O)[C@H](CO)NC(=O)[C@H](CCCNC(=N)N)NC(=O)c1ccccc1N)C(C)C)C(=O)N[C@@H](CCCCNc1ccc([N+](=O)[O-])cc1[N+](=O)[O-])C(=O)O; assay: Protease activity assay using Abz-RSVIK(Dnp), hydrolysis kinetic parameters, thermolysin; format: biochemical; conditions: other: thermolysin 2.5 nM, 37 °C, 50 mM Tris-HCl pH 7.4, substrate 2–130 mM as printed, fluorescence ex 320/em 420 nm, Michaelis-Menten fit, two independent experiments with triplicates
Protocol: Desired substrate concentrations were obtained by dilution of the stock in DMSO in 50 mM Tris-HCl (pH 7.4).
For the activity assay, 100 µl of the substrate solution at 2–130 mM in 50 mM Tris-HCl (pH 7.4) was added into a well of a black 96-well plate. After incubation at 37 °C for 10 min, 25 µl of the substrate were taken away and replaced with 25 µl of the enzyme solution in the same buffer preheated at 37 °C, and time-related fluorescence changes were monitored on an Infinite M200 Pro (Tecan, Switzerland). Measurements were taken at 37 °C every 10 s for 2–5 min at the excitation and emission wavelengths of 320 and 420 nm, respectively. Fluorescence varied linearly for 3 min. The initial hydrolysis rates were determined from the data obtained within the first 95 s of the reaction. The concentrations of PLN and TLN in the reaction mix were 2.5 nM. In parallel with the hydrolysis rate measurements, the control was conducted with the buffer added to a well instead of an enzyme solution. The main goal of this control was to determine the substrate concentration in the reaction mix. After the incubation, the substrate solution was transferred into a spectrophotometer cell to measure its optical density at 365 nm. The concentration calculated from the obtained OD was taken as the initial substrate concentration in the hydrolysis reaction.
A calibration curve was plotted to convert the obtained relative fluorescence data into the hydrolyzed substrate concentration. […] The course of the reaction was followed by fluorescence changes as described above. The hydrolysis was considered as complete when the fluorescence signal remained steady even after an extra portion of the enzyme was added (Supplementary Fig. S4). After the incubation, serial dilutions of the reaction mix were made, introduced into wells of a 96-well plate and fluorescence was measured as described above. 2,4-Dinitrophenyl was quantified spectrophotometrically in each well as described above. The resulting values were used to plot a calibration curve in coordinates of relative fluorescence units, μM. […]

Molecule: CC[C@H](C)[C@H](NC(=O)[C@@H](NC(=O)[C@H](CO)NC(=O)[C@H](CCCNC(=N)N)NC(=O)c1ccccc1N)C(C)C)C(=O)N[C@@H](CCCCNc1ccc([N+](=O)[O-])cc1[N+](=O)[O-])C(=O)O [Abz-RSVIK(Dnp), 2-aminobenzoyl-L-arginyl-L-seryl-L-valyl-L-isoleucyl-L-(ε-2,4-dinitrophenyl)lysine] (H-[2Abz]RSVIK(Dnp)-OH)
- Solubility: concentration from which optical density decreased with time [1]: ≥ 150 µM

Molecule: 2-aminobenzoyl-L-arginyl-L-seryl-L-valyl-L-isoleucyl-L-(ε-2,4-dinitrophenyl)lysine (peptide)
- KM of hydrolysis of Abz-RSVIK(Dnp) at 37 °C (initial rates fitted to the Michaelis-Menten equation; 2.5 nM enzyme, 50 mM Tris-HCl pH 7.4) (thermolysin): 33 μM
- KM of hydrolysis of Abz-RSVIK(Dnp) at 37 °C (initial rates fitted to the Michaelis-Menten equation; 2.5 nM enzyme, 50 mM Tris-HCl pH 7.4) [2]: 35 μM

Molecule: Abz-Arg-Ser-Val-Ile-Lys(Dnp)
- cleaved bond (thermolysin (TLN)): Ser-Val, 20 min
- not cleaved (thermolysin (TLN)): products remain undetectable after the time period (40 min)
- cleaved bond (protealysin (PLN)): Ser-Val, 20 min
- not cleaved (protealysin (PLN)): products remain undetectable after the time period (40 min)

B1: thermolysin (TLN) (Bacillus thermoproteolyticus) (protein)
chain: ITGTSTVGVGRGVLGDQKNINTTYSTYYYLQDNTRGNGIFTYDAKYRTTLPGSLWADADNQFFASYDAPAVDAHYYAGVTYDYYKNVHNRLSYDGNNAAIRSSVHYSQGYNNAFWNGSQMVYGDGDGQTFIPLSGGIDVVAHELTHAVTDYTAGLIYQNESGAINEAISDIFGTLVEFYANKNPDWEIGEDVYTPGISGDSLRSMSDPAKYGDPDHYSKRYTGTQDNGGVHINSGIINKAAYLISQGGTHYGVSVVGIGRDKLGKIFYRALTQYLTPTSNFSQLRAAAVQSATDLYGSTSQEVASVKQAFDAVGVK
notes: purchased Serva, Germany
- Km [3]: 33 ± 8 µM
- kcat [3]: 7 ± 1 s⁻¹
- kcat/Km [3]: 210000 ± 60000 M⁻¹ s⁻¹
